# Data as given in ChEMBL document CHEMBL1201862, “PubChem BioAssay data set” (2004).
# Active and inactive are the calls of the source.
# Assays:
# Mucolipin-3 = molecular target: T1, Mucolipin-3 (Homo sapiens, UniProt Q8TDD5); experiment: Dose response cell-based high-throughput screening assay for agonists of the transient receptor potential channel ML3 (TRPML3). [Related pubchem assays: 1526, 1424, 1448 ]; assay type: functional
# T1 sequence (Q8TDD5 whole entry): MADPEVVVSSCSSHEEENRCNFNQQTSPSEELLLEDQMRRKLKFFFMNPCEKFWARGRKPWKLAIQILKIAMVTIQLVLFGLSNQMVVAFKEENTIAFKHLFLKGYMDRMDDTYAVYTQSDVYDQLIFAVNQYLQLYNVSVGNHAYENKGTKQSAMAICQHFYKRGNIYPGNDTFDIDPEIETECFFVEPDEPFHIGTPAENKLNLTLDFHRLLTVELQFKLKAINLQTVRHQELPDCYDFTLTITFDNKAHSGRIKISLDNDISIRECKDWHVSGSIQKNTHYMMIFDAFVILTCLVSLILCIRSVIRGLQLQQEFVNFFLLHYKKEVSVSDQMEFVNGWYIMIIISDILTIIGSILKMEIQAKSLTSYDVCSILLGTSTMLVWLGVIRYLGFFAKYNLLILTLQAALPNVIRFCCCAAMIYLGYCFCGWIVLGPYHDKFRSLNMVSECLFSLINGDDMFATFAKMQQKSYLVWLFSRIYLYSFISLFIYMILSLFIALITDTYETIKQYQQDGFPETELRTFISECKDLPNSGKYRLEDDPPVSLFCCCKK
# Ion channel NompC = Ion channel NompC (Danio rerio, UniProt Q7T1G6); experiment: Fluorescence counterscreen assay for TRPML3 agonists: dose response cell-based high-throughput screening assay to identify agonists of the transient receptor potential channel N1 (TRPN1). [Related pubchem assays: 1526, 1424, 1448 ]; assay type: functional
# Ion channel NompC, sequence (Q7T1G6 whole entry): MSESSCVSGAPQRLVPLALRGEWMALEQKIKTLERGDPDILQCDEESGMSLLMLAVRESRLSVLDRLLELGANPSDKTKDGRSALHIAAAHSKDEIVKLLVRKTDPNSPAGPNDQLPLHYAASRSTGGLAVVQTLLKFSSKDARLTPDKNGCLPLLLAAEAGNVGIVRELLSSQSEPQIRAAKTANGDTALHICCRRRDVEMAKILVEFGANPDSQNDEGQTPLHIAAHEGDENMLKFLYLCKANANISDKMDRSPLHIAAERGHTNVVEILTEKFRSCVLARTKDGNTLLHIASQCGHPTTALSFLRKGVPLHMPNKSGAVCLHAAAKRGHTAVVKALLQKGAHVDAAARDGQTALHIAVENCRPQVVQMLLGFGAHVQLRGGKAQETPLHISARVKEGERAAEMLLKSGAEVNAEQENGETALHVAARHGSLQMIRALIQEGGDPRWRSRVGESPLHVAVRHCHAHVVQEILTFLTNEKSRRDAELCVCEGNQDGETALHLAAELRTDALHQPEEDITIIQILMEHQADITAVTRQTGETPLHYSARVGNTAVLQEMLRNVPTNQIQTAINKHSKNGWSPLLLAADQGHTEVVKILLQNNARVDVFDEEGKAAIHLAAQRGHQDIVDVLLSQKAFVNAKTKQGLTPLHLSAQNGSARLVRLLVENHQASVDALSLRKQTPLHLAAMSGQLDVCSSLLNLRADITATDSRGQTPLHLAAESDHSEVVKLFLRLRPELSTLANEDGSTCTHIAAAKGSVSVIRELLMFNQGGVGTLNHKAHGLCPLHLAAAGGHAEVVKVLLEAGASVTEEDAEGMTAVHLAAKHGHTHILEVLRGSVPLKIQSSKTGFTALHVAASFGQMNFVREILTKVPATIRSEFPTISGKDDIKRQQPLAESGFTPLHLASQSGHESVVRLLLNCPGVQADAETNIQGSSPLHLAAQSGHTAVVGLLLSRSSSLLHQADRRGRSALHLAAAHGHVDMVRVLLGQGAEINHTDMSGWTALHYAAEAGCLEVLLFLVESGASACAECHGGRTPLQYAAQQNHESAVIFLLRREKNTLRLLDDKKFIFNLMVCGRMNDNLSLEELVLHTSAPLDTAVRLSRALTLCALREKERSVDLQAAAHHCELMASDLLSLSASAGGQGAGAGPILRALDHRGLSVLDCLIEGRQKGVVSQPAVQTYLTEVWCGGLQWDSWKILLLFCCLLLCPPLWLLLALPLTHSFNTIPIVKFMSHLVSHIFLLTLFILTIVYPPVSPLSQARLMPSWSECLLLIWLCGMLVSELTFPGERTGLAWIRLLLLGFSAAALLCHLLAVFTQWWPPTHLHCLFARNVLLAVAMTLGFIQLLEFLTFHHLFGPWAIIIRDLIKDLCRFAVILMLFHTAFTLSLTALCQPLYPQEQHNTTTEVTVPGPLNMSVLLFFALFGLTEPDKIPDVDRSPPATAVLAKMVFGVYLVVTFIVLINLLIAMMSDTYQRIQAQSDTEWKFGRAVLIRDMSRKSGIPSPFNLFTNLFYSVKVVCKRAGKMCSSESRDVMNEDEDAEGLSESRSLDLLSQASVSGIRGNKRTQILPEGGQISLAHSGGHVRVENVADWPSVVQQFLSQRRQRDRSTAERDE
# fMet-Leu-Phe receptor = molecular target: T2, fMet-Leu-Phe receptor (Homo sapiens, UniProt P21462); experiment: formyl peptide receptor binders – dose response (AID 519); assay type: functional
# T2 sequence (P21462 whole entry): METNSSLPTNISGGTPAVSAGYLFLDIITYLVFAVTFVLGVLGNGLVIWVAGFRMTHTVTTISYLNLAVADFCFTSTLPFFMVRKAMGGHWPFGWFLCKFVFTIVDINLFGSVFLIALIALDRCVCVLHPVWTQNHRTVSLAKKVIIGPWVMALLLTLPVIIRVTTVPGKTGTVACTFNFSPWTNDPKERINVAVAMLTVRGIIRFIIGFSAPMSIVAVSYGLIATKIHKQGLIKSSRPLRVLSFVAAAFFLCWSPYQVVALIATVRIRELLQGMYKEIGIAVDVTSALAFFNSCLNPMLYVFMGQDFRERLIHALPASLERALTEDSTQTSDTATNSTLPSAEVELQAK
# [1] = molecular target: T3, Replicative DNA helicase DnaB (Mycobacterium tuberculosis, UniProt P9WMR3); experiment: DnaB intein splicing inhibitors, dose response, biochemical, cell-free fluorescence (AID 449749); assay type: functional
# T3 sequence (P9WMR3 whole entry): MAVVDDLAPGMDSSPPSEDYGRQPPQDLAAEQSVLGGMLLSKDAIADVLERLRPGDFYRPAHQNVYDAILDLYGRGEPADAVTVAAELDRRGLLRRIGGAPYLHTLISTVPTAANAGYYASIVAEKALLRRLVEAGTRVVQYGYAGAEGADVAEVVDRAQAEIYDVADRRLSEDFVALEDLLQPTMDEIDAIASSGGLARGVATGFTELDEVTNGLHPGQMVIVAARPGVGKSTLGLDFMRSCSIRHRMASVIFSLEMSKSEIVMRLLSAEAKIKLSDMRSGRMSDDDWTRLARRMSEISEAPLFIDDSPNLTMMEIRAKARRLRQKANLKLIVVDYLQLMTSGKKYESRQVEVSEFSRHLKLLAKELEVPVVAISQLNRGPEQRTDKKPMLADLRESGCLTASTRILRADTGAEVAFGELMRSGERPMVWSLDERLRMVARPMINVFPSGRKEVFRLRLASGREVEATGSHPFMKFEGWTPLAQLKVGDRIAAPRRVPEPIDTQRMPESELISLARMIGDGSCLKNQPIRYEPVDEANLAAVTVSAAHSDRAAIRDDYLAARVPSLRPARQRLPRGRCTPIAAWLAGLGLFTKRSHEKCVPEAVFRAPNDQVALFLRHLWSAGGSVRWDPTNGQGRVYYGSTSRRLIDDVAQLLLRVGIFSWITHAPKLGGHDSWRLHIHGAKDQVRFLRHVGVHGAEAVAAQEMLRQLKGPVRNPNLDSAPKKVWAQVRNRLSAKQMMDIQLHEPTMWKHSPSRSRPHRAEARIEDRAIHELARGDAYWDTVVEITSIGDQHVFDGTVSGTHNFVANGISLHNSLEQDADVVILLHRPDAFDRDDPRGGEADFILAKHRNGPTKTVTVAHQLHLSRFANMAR
# Protein RecA = molecular target: T4, Protein RecA (Mycobacterium tuberculosis, UniProt P9WHJ3); experiment: Fluorescence Cell-Free Homogeneous Dose Retest to Identify Inhibitors of RecA-Intein Splicing Activity. [Related pubchem assays (depositor defined):AID2097, AID2223, AID489010, AID492950]; assay type: functional
# T4 sequence (P9WHJ3 whole entry): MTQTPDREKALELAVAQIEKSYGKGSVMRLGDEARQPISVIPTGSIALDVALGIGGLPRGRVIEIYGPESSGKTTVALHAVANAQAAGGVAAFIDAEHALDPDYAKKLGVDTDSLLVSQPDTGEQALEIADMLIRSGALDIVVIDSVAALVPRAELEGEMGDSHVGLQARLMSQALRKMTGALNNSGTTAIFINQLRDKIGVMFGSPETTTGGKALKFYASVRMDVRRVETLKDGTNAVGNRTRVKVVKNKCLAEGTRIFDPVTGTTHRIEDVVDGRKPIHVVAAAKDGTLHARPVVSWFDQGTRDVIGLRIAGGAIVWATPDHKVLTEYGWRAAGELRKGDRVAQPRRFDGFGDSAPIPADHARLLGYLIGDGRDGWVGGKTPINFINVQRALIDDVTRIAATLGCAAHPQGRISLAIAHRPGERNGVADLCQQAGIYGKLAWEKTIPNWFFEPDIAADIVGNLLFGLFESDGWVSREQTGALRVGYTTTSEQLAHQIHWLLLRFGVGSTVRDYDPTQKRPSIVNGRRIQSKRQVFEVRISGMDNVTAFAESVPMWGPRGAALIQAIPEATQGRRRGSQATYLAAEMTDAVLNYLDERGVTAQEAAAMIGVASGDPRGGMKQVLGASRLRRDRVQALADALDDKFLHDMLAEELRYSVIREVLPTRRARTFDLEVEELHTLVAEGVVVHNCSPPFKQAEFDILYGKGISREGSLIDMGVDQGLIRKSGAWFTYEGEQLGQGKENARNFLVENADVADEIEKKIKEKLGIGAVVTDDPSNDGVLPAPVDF
# [2] = molecular target: T5, Fructose-bisphosphate aldolase (Mycobacterium tuberculosis, UniProt P9WQA3); experiment: Fluorescence-based biochemical high throughput dose response assay for inhibitors of the fructose-bisphosphate aldolase (FBA) of M. tuberculosis.; assay type: functional
# T5 sequence (P9WQA3 whole entry): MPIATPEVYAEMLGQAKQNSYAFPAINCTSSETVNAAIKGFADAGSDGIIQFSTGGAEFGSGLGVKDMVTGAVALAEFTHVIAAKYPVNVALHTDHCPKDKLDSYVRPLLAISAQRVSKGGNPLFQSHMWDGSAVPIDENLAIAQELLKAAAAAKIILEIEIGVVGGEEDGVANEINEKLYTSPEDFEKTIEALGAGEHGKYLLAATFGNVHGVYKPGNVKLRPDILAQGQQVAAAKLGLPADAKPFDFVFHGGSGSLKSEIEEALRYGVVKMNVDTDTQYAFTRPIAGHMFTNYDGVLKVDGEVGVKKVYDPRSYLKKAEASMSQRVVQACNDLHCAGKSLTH
# [3] = cytotoxicity toward Colo320 cells – cell-based, CellTiter-Glo luminescence, IC50, dose response (AID 1117334); assay type: functional; settings: COLO 320
# [4] = SNU-C1 cell viability reduction, dose response, CellTiter-Glo luminescence (AID 1117323); assay type: functional, cell-based
# [5] = CellTiter-Glo luminescence survival assay, SW480 colon tumor line, concentration-response curve, half-maximal inhibitory concentration (AID 1117338); assay type: functional
# [6] = cytotoxicity toward HT-29 cells – cell-based, CellTiter-Glo luminescence, IC50, dose response (AID 1117330); assay type: functional
# [7] = HCT116 cell viability decrease, GSK3B pretreatment – CellTiter-Glo, IC50, dose response (AID 1117339); assay type: functional; settings: HCT-116
# [8] = Reduced DLD-1 viability, concentration-response, CellTiter-Glo luminescence (AID 1117352); assay type: functional
# [9] = cytotoxicity toward HCT116 cells – cell-based, CellTiter-Glo luminescence, IC50, dose response (AID 1117332); assay type: functional; settings: HCT-116
# [10] = RKO cell viability reduction, dose response, CellTiter-Glo luminescence (AID 1117322); assay type: functional
# [11] = NIH-3T3 fibroblast cytotoxicity, dose response, cytotoxicity control, cell-based, fluorescence, Alamar Blue, secondary assay (AID 2327); assay type: functional;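 further: NIH-3T3 mouse fibroblasts cultured with fluconazole at 8 µg/mL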
# Nonstructural protein 1 = Nonstructural protein 1 (Influenza A virus, UniProt Q194T2); assay type: functional, Influenza A virus (A/California/07/2009(H1N1))
# Nonstructural protein 1, sequence (Q194T2 whole entry): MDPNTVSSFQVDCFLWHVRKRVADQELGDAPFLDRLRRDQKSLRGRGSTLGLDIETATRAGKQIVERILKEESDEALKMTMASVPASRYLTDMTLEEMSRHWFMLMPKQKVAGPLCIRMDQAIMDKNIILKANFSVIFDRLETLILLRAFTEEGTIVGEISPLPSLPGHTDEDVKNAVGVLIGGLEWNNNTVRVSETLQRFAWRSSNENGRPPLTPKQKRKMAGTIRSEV
# [12] = molecular target: T6, Mannose-6-phosphate isomerase (Homo sapiens, UniProt P34949); experiment: MPI enzyme activity inhibition – biochemical, fluorescence intensity, coupled assay, primary screen (AID 1209)
# T6 sequence (P34949 whole entry): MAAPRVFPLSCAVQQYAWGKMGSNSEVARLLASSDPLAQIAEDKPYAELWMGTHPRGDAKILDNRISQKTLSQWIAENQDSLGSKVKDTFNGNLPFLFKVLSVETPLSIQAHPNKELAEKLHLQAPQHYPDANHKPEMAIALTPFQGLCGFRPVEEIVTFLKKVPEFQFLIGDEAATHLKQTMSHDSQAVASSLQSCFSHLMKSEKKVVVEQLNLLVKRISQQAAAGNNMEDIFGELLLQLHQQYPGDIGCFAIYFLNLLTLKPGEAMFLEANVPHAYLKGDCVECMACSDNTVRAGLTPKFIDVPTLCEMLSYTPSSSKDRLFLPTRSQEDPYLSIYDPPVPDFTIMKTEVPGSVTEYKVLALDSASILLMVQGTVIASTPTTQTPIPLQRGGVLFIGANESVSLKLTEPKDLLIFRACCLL
# [13] = fluconazole-exposed Candida albicans growth modulators – fluorescence, retest, confirmation (AID 2467); assay type: functional, cell-based
smiles,measurement,setting,value
COc1ccccc1N(C)S(=O)(=O)c1ccc(Cl)c(C(=O)OCc2c(C)noc2C)c1,EC50,Mucolipin-3,3.01 µM (active)
same,EC50,Ion channel NompC,> 29.9 µM (not active)
CCCOc1ccc2c(=O)c(N3C(=O)c4ccccc4C3=O)c(C)oc2c1,Ki,fMet-Leu-Phe receptor,> 66.7 µM (inactive)
COc1ccccc1-c1c(C)oc2cc(OC(=O)c3ccco3)ccc2c1=O,AC50,[1],21.8 µM (active)
same,EC50,Protein RecA,23.8 µM (active)
same,Ki,fMet-Leu-Phe receptor,9 µM (active)
same,IC50,[2],1.55 µM (active)
CCCCCCCCOC(=O)c1ccccc1C(=O)OCCCCCCCC,IC50,[3],> 20 µM (inactive)
same,IC50,[4],> 20 µM (inactive)
same,IC50,[5],> 20 µM (inactive)
same,IC50,[6],> 20 µM (inactive)
same,IC50,[7],> 20 µM (inactive)
same,IC50,[8],> 20 µM (inactive)
same,IC50,[9],> 20 µM (inactive)
same,IC50,[10],> 20 µM (inactive)
OCCN1CCN(Cc2cc(Cl)c3cccnc3c2O)CC1,EC50,[11],121 µM (active)
same,IC50,Nonstructural protein 1,3.93 µM (active)
same,IC50,[12],4.09 µM (active)
same,EC50,[13],> 38 µM (not active)
COc1ccc(N(CC(=O)N2CCCCC2)S(=O)(=O)c2ccccc2)c(OC)c1,EC50,Mucolipin-3,1.84 µM (active)
same,EC50,Ion channel NompC,> 9.99 µM (not active)
